This is an account of results in patent US8791102B2, “Acetanilide sphingosine-1-phosphate receptor antagonists” (Exelixis, Inc., priority 2008, dated 2014).

The target of the test is T1, human S1P1 receptors (Homo sapiens, UniProt P21453).
T1 construct: host or cells: HEK293
The test can be described thus: S1P1R antagonist assay (fluorescent membrane potential dye, cAMP readout). Type of test: cell-based. Particulars: HEK293 cells expressing human S1P1 receptors and CNG channel; 500 nM NECA; S1P1R agonist 10 nM; 90 minutes; read-out: EC50 or IC50 value.

T1 sequence (P21453 whole entry): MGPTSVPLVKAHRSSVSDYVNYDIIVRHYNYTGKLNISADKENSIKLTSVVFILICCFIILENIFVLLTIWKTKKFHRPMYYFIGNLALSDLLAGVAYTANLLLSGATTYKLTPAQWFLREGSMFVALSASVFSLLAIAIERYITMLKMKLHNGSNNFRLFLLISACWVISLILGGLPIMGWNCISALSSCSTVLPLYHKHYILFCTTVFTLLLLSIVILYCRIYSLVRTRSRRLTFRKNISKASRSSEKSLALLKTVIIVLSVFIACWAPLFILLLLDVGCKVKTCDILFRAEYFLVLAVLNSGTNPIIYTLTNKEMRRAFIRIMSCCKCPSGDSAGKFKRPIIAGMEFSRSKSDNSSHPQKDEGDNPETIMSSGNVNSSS

Take `O=C(CCCc1ccccc1)NC(COCc1ccccc1)C(=O)Nc1ccc(Oc2ccccc2)cc1` (centres unmarked) [Compound 300, N-(2-oxo-1-{[(phenylmethyl)oxy]methyl}-2-{[4-(phenyloxy)phenyl]amino}ethyl)-4-phenylbutanamide]: the IC50 – broadly, the concentration needed to halve the response being measured – was more than 1000 nM.

For the compound `O=C(CN1CCN(C(=O)C2CCCO2)CC1)N[C@@H](COCc1ccccc1)C(=O)Nc1ccc(Oc2ccc(F)cc2)cc1` (stereo partly drawn) [Compound 237, (2S)-3-(benzyloxy)-N-(4-(4-fluorophenoxy)phenyl)-2-(2-(4-(tetrahydrofuran-2-carbonyl)piperazin-1-yl)acetamido)propanamide], the IC50 was in the range of 300 to 1000 nM.

As to `O=C(NC(COCc1ccccc1)C(=O)Nc1ccc(Oc2ccccc2)cc1)c1cc2ccccc2[nH]1` (centres unmarked) [Compound 386, N-(2-oxo-1-{[(phenylmethyl)oxy]methyl}-2-{[4-(phenyloxy)phenyl]amino}ethyl)-1H-indole-2-carboxamide], the IC50 is more than 1000 nM.

For `CS(=O)(=O)CC(=O)N1C[C@H](Cc2ccccc2)C[C@H]1C(=O)Nc1ccc(Oc2ccc(F)cc2)cc1` [Compound 87, (2S,4R)-4-benzyl-N-(4-(4-fluorophenoxy)phenyl)-1-(2-(methylsulfonyl)acetyl)pyrrolidine-2-carboxamide], the IC50 is not above 300 nM.

For `O=C(Nc1ccc(Oc2ccc(F)cc2)cc1)[C@@H]1C[C@H](Cc2ccc(F)cc2)CN1C(=O)Cn1cncn1` [Compound 76, (2S,4S)-1-(2-(1H-1,2,4-triazol-1-yl)acetyl)-4-(4-fluorobenzyl)-N-(4-(4-fluorophenoxy)phenyl)pyrrolidine-2-carboxamide], the IC50 is not above 300 nM.

Take `CN(C)C(=O)CCC(=O)NC(COCc1ccccc1)C(=O)Nc1ccc(Oc2ccccc2)cc1` (centres unmarked) [Compound 339, N,N-dimethyl-N′-(2-oxo-1-{[(phenylmethyl)oxy]methyl}-2-{[4-(phenyloxy)phenyl]amino}ethyl)butanediamide]: the IC50 is more than 1000 nM.

For `Cc1cc(F)ccc1C[C@@H]1C[C@@H](C(=O)Nc2ccc(Oc3ccc(F)cc3)cc2)N(C(=O)Cn2ccnn2)C1` [Compound 6, (2S,4R)-1-(2-(1H-1,2,3-triazol-1-yl)acetyl)-4-(4-fluoro-2-methylbenzyl)-N-(4-(4-fluorophenoxy)phenyl)pyrrolidine-2-carboxamide], the IC50 was not above 300 nM.

As to `COCCC(=O)N1C[C@H](Cc2ccccc2)C[C@H]1C(=O)Nc1ccc(Oc2ccc(F)cc2)cc1` [Compound 90, (2S,4R)-4-benzyl-N-(4-(4-fluorophenoxy)phenyl)-1-(3-methoxypropanoyl)pyrrolidine-2-carboxamide], the IC50 was not above 300 nM.

For `O=C(Cc1ccc(OCc2ccccc2)cc1)NC(COCc1ccccc1)C(=O)Nc1ccc(Oc2ccccc2)cc1` (centres unmarked) [Compound 271, 4-benzyloxy-N-(2-oxo-1-{[(phenylmethyl)oxy]methyl}-2-{[4-(phenyloxy)phenyl]amino}ethyl)phenylacetamide], the 50% inhibitory concentration (IC50) is more than 1000 nM.

In the case of `O=C(Nc1ccc(Oc2ccc(F)cc2)cc1)[C@@H]1C[C@@H](Cc2ccccc2)CN1C(=O)Cc1ccccc1` [Compound 31, (2S,4R)-4-benzyl-N-(4-(4-fluorophenoxy)phenyl)-1-(2-phenylacetyl)pyrrolidine-2-carboxamide], the IC50 is not above 300 nM.

As to `COC(C(=O)NC(COCc1ccccc1)C(=O)Nc1ccc(Oc2ccccc2)cc1)c1ccccc1` (centres unmarked) [Compound 353, N-(2-oxo-1-{[(phenylmethyl)oxy]methyl}-2-{[4-(phenyloxy)phenyl]amino}ethyl)-2-methoxy-2-phenylacetamide], the IC50 is more than 1000 nM.

Turning to `O=C(CCCCCN1C(=O)C=CC1=O)NC(COCc1ccccc1)C(=O)Nc1ccc(Oc2ccccc2)cc1` (centres unmarked) [Compound 15, N-(3-(benzyloxy)-1-oxo-1-(4-phenoxyphenylamino)propan-2-yl)-6-(2,5-dioxo-2,5-dihydro-1H-pyrrol-1-yl)hexanamide], the IC50 was more than 1000 nM.

Turning to `O=C(Nc1ccc(Oc2ccc(F)cc2)cc1)[C@@H]1C[C@@H](Cc2ccccc2)CN1C(=O)CCCc1ccc2c(c1)OCCO2` [Compound 33, (2S,4R)-4-benzyl-1-(4-(2,3-dihydrobenzo[b][1,4]dioxin-6-yl)butanoyl)-N-(4-(4-fluorophenoxy)phenyl)pyrrolidine-2-carboxamide], the IC50 is not above 300 nM.

Consider `Cc1[nH]c2ccccc2c1CC(=O)N1C[C@H](Cc2ccccc2)C[C@H]1C(=O)Nc1ccc(Oc2ccc(F)cc2)cc1` [Compound 37, (2S,4R)-4-benzyl-N-(4-(4-fluorophenoxy)phenyl)-1-(2-(2-methyl-1H-indol-3-yl)acetyl)pyrrolidine-2-carboxamide], for which the IC50 is not above 300 nM.

In the case of `O=C(NC(COCc1ccccc1)C(=O)Nc1ccc(Oc2ccccc2)cc1)c1ccc(Cl)cc1` (centres unmarked) [Compound 276, 4-chloro-N-(2-oxo-1-{[(phenylmethyl)oxy]methyl}-2-{[4-(phenyloxy)phenyl]amino}ethyl)benzamide], the IC50 is more than 1000 nM.

With `O=C(Cc1ccc(Br)cc1)NC(COCc1ccccc1)C(=O)Nc1ccc(Oc2ccccc2)cc1` (centres unmarked) [Compound 390, N-(2-oxo-1-{[(phenylmethyl)oxy]methyl}-2-{[4-(phenyloxy)phenyl]amino}ethyl)-2-(4-bromophenyl)acetamide], the IC50 was more than 1000 nM.

For the compound `COc1cc(CC(=O)NC(COCc2ccccc2)C(=O)Nc2ccc(Oc3ccccc3)cc2)cc(OC)c1OC` (centres unmarked) [Compound 392, N-(2-oxo-1-{[(phenylmethyl)oxy]methyl}-2-{[4-(phenyloxy)phenyl]amino}ethyl)-2-(3,4,5-trimethoxyphenyl)acetamide], the IC50 was in the range of 300 to 1000 nM.

Turning to `O=C(NC(COCc1ccccc1)C(=O)Nc1ccc(Oc2ccccc2)cc1)c1cnnc2ccccc12` (centres unmarked) [Compound 356, N-(2-oxo-1-{[(phenylmethyl)oxy]methyl}-2-{[4-(phenyloxy)phenyl]amino}ethyl)cinnoline-4-carboxamide], the IC50 lay in the range of 300 to 1000 nM.

In the case of `O=C(Nc1ccc(Oc2ccc(F)cc2)cc1)[C@@H]1C[C@@H](N2Cc3ccccc3C2)CN1C(=O)Cn1cncn1` [Compound 260, (2S,4R)-1-(2-(1H-1,2,4-triazol-1-yl)acetyl)-N-(4-(4-fluorophenoxy)phenyl)-4-(isoindolin-2-yl)pyrrolidine-2-carboxamide], the IC50 was 300 to 1000 nM.

For `Nc1nc(C(F)(F)F)nn1CC(=O)N1C[C@H](Cc2ccccc2)C[C@H]1C(=O)Nc1ccc(Oc2ccc(F)cc2)cc1` [Compound 11, (2S,4R)-1-(2-(5-amino-3-(trifluoromethyl)-1H-1,2,4-triazol-1-yl)acetyl)-4-benzyl-N-(4-(4-fluorophenoxy)phenyl)pyrrolidine-2-carboxamide], the IC50 is not above 300 nM.

Regarding `CC(=O)c1ccc(N2CCN(CC(=O)N[C@@H](COCc3ccccc3)C(=O)Nc3ccc(Oc4ccc(F)cc4)cc3)CC2)cc1` [Compound 229, (S)-2-(2-(4-(4-acetylphenyl)piperazin-1-yl)acetamido)-3-(benzyloxy)-N-(4-(4-fluorophenoxy)phenyl)propanamide], the IC50 was 300 to 1000 nM.

With `CSc1ncccc1C(=O)NC(COCc1ccccc1)C(=O)Nc1ccc(Oc2ccccc2)cc1` (centres unmarked) [Compound 28, N-(3-(benzyloxy)-1-oxo-1-(4-phenoxyphenylamino)propan-2-yl)-2-(methylthio)nicotinamide], the IC50 is more than 1000 nM.

Regarding `O=C(Nc1ccc(Oc2ccccc2)cc1)C(COCc1ccccc1)NC(=O)[C@H](O)Cc1ccccc1` (stereo partly drawn) [Compound 27, 3-(benzyloxy)-2-((R)-2-hydroxy-3-phenylpropanamido)-N-(4-phenoxyphenyl)propanamide], the half-maximal inhibitory concentration (IC50) is more than 1000 nM.
